Test results published in US4129659A, “Method for improving cardiovascular function with salinomycin” (The University of Miami, priority 1977, dated 1978).
Where two headings read alike, the source gives them in different places.

Assays:
[1] = system: heart and coronary circulation of anesthetized dogs; test: Physiological effects of ionophores in anesthetized dogs: inotropic and coronary flow potency relative to lasalocid; format: in vivo, dog
Method: Extended experimental studies were conducted involving a number of ionophores.
^1 Studies conducted on anesthetized dogs.
^2 Ionotropic potencies are expressed as the reciprocal of the dose
required to double dP/dt Max., relative to the dose of Lasolocid required
^3 Coronary flow potency is calculated as the inotropic potency,
normalized for coronary flow by the factor: coronary flow increased
produced by doubling dose of the test ionophore/coronary flow produced by
the doubling dose of Lasalocid.

[2] = system: erythrocytes of whole fresh human blood; test: RBC K+ leak: release of erythrocyte potassium into plasma fraction in vitro; format: cell-based; settings: for Ratio 2/4 (coronary flow potency / RBC K+ leak potency): dog coronary flow vs human RBC K+ leak; for Ratio 2/4 (coronary flow potency / RBC K+ leak potency) / Ratio 1/4 (inotropic potency / RBC K+ leak potency) / RBC K+ Leak Potency (column 4): relative to lasalocid; for Ratio 1/4 (inotropic potency / RBC K+ leak potency): dog inotropy vs human RBC K+ leak; for RBC K+ Leak Potency (column 4): reciprocal of concentration which leaked 15 mM K+/hr from erythrocytes
Method: ^4 RBC K^+ leak potency is the reciprocal of the concentration
which leaked 15 mMK^+ /hr. from the erythrocytes of whole fresh human
blood, relative to that of Lasalocid. The reference concentration of
The intrinsic ability of the test ionophores to release cellular potassium was measured using whole human blood and assaying the release of erythrocyte potassium into the plasma fraction in vitro.

[3] = system: skeletal and cardiac muscle; settings: prior finding ("it has been shown"); in words; cited from earlier work
cardiac muscle = settings: in words; cited from earlier work
[4] = system: heart and coronary circulation of anesthetized dogs; test: Hemodynamic effects of intravenous salinomycin in anesthetized normal dogs; format: in vivo, dog (normal female mongrel dogs); settings: for Coronary Flow, % of Control / dP/dt, % of Control: Table 1
Method: Normal female mongrel dogs, weighing 30-35 lbs., were anesthetized with intravenous sodium pentobarbital (20 mg/kg.) and artificially ventilated. […] The derivative of the left ventricular pressure (dP/dt) was obtained from a Millar micromanometer-tipped catheter after differentiation by an appropriate R-C circuit. The electrocardiogram was monitored from standard leads attached to the extremities of the dog. All parameters were recorded simultaneously and continuously by a multichannel photographer recorder, and were monitored during the experiments by a multichannel oscilloscope.
After all vital parameters had become stable, 0.03 mg/kg of salinomycin in absolute ethanol was administered over a period of 30 seconds to 1 minute. An hour later a larger dose of 0.06 mg/kg was administered to the same dog.
Further information on the hemodynamic effects of salinomycin were obtained in a study involving seven dogs. Using the same procedure set forth hereinabove and after all vital parameters had become stable, 0.075 mg/kg of salinomycin in absolute ethanol was administered over a period of 30 seconds to one minute.

Solubility in water = format: physicochemical; settings: in words
Oral LD50 in chickens = settings: chicken, in vivo, oral administration
intra-cellular Na+ = test: Intracellular cation exchange (Na+ for K+); settings: in exchange for K+; in words
[5] = system: skeletal and cardiac muscle; test: Skeletal and cardiac myopathy upon chronic administration; format: in vivo; settings: in words
heart = test: Studies in anesthetized normal and infarcted dogs and isolated guinea pig and rabbit hearts; format: in vivo, dog; settings: in words
Oral LD50 in dogs = settings: dog, in vivo, oral administration
[6] = inotropic potency normalized for coronary flow increase at doubling dose, relative to lasalocid, anesthetized dogs
[7] = reciprocal of dose required to double dP/dt Max., relative to lasalocid, anesthetized dogs
[8] = 0.03 mg/kg in absolute ethanol, anesthetized dog
[9] = 0.06 mg/kg, an hour after 0.03 mg/kg, same dog
[10] = 0.075 mg/kg, seven dogs, P <.001
[11] = 0.075 mg/kg, seven dogs, P <.01

COC1CCC(OC2C(C)C(O)(C(C)C(=O)O)OC(CC3CC(OC)C(C)C4(O3)OC(C)(C3CCC(C5CCC(C6OC(C)(O)C(C)C(OC)C6C)O5)O3)C(OC)C4C)C2(C)OC)OC1C (stereo not drawn) [A-204]
coronary flow potency compared with salinomycin ([1]; in words): markedly reduced coronary flow potency than salinomycin
inotropic potency compared with salinomycin ([1]; in words): slightly higher inotropic potency than salinomycin
Coronary Flow Potency [1, 6]: 14.1
Inotropic Potency [1, 7]: 13.1
Ratio 2/4 (coronary flow potency / RBC K+ leak potency) [2]: .34
Ratio 1/4 (inotropic potency / RBC K+ leak potency) [2]: .32
increase in potassium cellular leakage potency compared with salinomycin ([2]; human): 400%
RBC K+ Leak Potency (column 4) [2]: 41.0
skeletal and cardiac myopathy upon chronic administration [3]: exhibits the undesirable side effects of skeletal and cardiac myopathy upon chronic administration

CO[C@H]1CC[C@@H](O[C@H]2C[C@H]([C@]3(C)CC[C@]4(C[C@H](O)[C@@H](C)[C@@H]([C@@H](C)/C=C(\C)C(=O)[C@H](C)C[C@H](C)C(=O)O)O4)O3)O[C@]3(O[C@@H]([C@H]4O[C@@](O)(CO)[C@H](C)C[C@@H]4C)C[C@@H]3C)[C@@H]2C)O[C@@H]1C [Dianemycin]
Coronary Flow Potency [1, 6]: 4.6
Inotropic Potency [1, 7]: 4.3
Ratio 2/4 (coronary flow potency / RBC K+ leak potency) [2]: .25
Ratio 1/4 (inotropic potency / RBC K+ leak potency) [2]: .24
RBC K+ Leak Potency (column 4) [2]: 18.0

CC[C@@H](C(=O)[C@@H](C)[C@@H](O)[C@H](C)CCc1ccc(C)c(O)c1C(=O)O)[C@H]1O[C@](CC)([C@H]2CC[C@](O)(CC)[C@H](C)O2)C[C@@H]1C [Lasalocid, lasalocid]
Coronary Flow Potency [1]: 1.0
Inotropic Potency [1]: 1.0
Ratio 2/1 (coronary flow potency / inotropic potency) ([1]; relative to lasalocid, anesthetized dogs): 1.0
Ratio 2/4 (coronary flow potency / RBC K+ leak potency) [2]: 1.0
Ratio 1/4 (inotropic potency / RBC K+ leak potency) [2]: 1.0
concentration which leaked 15 mM K+/hr. from erythrocytes ([2]; human): 11.5 µM
cardiac effects (prior art) (cardiac muscle): cardiotrophic properties

CC[C@@]1([C@@H]2O[C@@H]([C@H]3O[C@@](O)(CO)[C@H](C)C[C@@H]3C)C[C@@H]2C)CC[C@H]([C@]2(C)CC[C@]3(C[C@H](O)[C@@H](C)[C@@H]([C@@H](C)[C@@H](OC)[C@H](C)C(=O)O)O3)O2)O1 [Monensin]
Coronary Flow Potency [1, 6]: 10.0
Inotropic Potency [1, 7]: 6.1
Ratio 2/4 (coronary flow potency / RBC K+ leak potency) [2]: 1.4
Ratio 1/4 (inotropic potency / RBC K+ leak potency) [2]: .84
RBC K+ Leak Potency (column 4) [2]: 7.2

COC1CC(CC2CCC(C)C(C(C)C(=O)O)O2)OC2(OC(C)(C3CCC(C)(C4OC(C5OC(O)(CO)C(C)CC5C)CC4C)O3)CC2C)C1C (stereo not drawn) [Nigerlcin]
Coronary Flow Potency [1, 6]: 3.4
Inotropic Potency [1, 7]: 2.8
Ratio 2/4 (coronary flow potency / RBC K+ leak potency) [2]: .21
Ratio 1/4 (inotropic potency / RBC K+ leak potency) [2]: .17
RBC K+ Leak Potency (column 4) [2]: 16.4

CC[C@@H](C(=O)[C@@H](C)[C@@H](O)[C@H](C)[C@@H]1O[C@@H]([C@@H](CC)C(=O)O)CC[C@@H]1C)[C@H]1O[C@]2(C=C[C@@H](O)[C@]3(CC[C@@](C)([C@H]4CC[C@](O)(CC)[C@H](C)O4)O3)O2)[C@H](C)C[C@@H]1C [Salinomycin, salinomycin]
Coronary Flow, % of Control [4, 8]: 175%
dP/dt, % of Control [4, 8]: 131%
Coronary Flow, % of Control [4, 9]: 375%
dP/dt, % of Control [4, 9]: 180%
Cardiac Output, Mean % Control [4, 10]: 178%
dP/dt Max., Mean % Control [4, 10]: 204%
Coronary Flow, Mean % Control [4, 11]: 522%
Coronary Resistance, Mean % Control [4, 11]: 38%
Heart Rate, Mean % Control [4, 11]: 113%
Total Peripheral Resistance, Mean % Control ([4]; 0.075 mg/kg, seven dogs, P <.02): 77%
Cardiac Output + Salinomycin (mean ± SE) ([4]; 0.075 mg/kg, seven dogs, control 1.83 ± .2, P <.001): 3.2 ± .2 L/min
Coronary Flow + Salinomycin (mean ± SE) ([4]; 0.075 mg/kg, seven dogs, control 21 ± 4.8, P <.01): 93 ± 19 mL/min
Heart Rate + Salinomycin (mean ± SE) ([4]; 0.075 mg/kg, seven dogs, control 152 ± 7, P <.01): 170 ± 4 min.^-1
Coronary Resistance + Salinomycin (mean ± SE) ([4]; 0.075 mg/kg, seven dogs, control 460 ± 98, P <.01): 150 ± 25 dynes sec cm^-5
dP/dt Max. + Salinomycin (mean ± SE) ([4]; 0.075 mg/kg, seven dogs, control 2340 ± 265, P <.001): 4700 ± 618 mm. Hg sec^-1
Total Peripheral Resistance + Salinomycin (mean ± SE) ([4]; 0.075 mg/kg, seven dogs, control 4200 ± 600, P <.02): 3200 ± 400 dynes sec cm^-5
ED (2-fold dP/dt max) ([4]; Canis lupus familiaris, iv, in absolute ethanol, anesthetized dogs, read-out: dose that doubles left ventricular max. dP/dt): 0.075 mg/kg
cardiovascular effects (inotropic, chronotropic) ([4]; in words): positive inotropic effects with minimal chronotropic effects
solubility in water (Solubility in water): minimal solubility in water
separation between positive inotropy and coronary vasodilation ([1]; compared with other carboxylic ionophores, in words): more pronounced separation between the two principal cardiotonic responses of positive inotropy and coronary vasodilation
Coronary Flow Potency [1, 6]: 19.6
Inotropic Potency [1, 7]: 12.1
LD50 (Oral LD50 in chickens): 125 mg/kg
effect on intra-cellular Na+ (intra-cellular Na+): increase in intra-cellular Na^+ in exchange for K^+
pharmacological effect vs potassium release, compared with other carboxylic ionophores ([2]; Table 3, columns 5 and 6, in words): superior to all other carboxylic ionophores examined
Ratio 2/4 (coronary flow potency / RBC K+ leak potency) [2]: 1.96
Ratio 1/4 (inotropic potency / RBC K+ leak potency) [2]: 1.21
RBC K+ Leak Potency (column 4) [2]: 10.0
skeletal and cardiac myopathy upon chronic administration [5]: This undesirable effect has not been shown
effect on cardiac output, coronary flow and myocardial work efficiency (heart): increases in cardiac output, coronary flow and myocardial work efficiency
effect on coronary arteries (heart): dilates the coronary arteries
effect on force of myocardial contraction and heart rate (heart): increases the force of myocardial contraction and heart rate
effect on total peripheral resistance (heart): decreases the total peripheral resistance
LD50 (Oral LD50 in dogs): 10 mg/kg

CO[C@H]1C[C@@H](C[C@H]2O[C@@](O)([C@H](C)C(=O)O)[C@H](C)[C@H](OC)[C@@]2(C)O[C@H]2CC[C@@H](OC)[C@H](C)O2)O[C@]2(O[C@@](C)([C@@H]3CC[C@H]([C@H]4CC[C@H]([C@H]5O[C@](C)(O)[C@H](C)C[C@@H]5C)O4)O3)[C@H](OC)[C@H]2C)[C@@H]1C [Septamycin]
Inotropic Potency [1, 7]: 2.0

CC[C@@H]1O[C@@H]([C@]2(C)C[C@@H](C)[C@](O)([C@]3(C)CC[C@@H]([C@@H](O)[C@]4(O)O[C@H](C[C@@]5(O)O[C@@H]([C@@H](C)[C@H](O)C[C@H]6CC[C@H](C)[C@@H]([C@@H](C)C(=O)O)O6)CC[C@@H]5C)[C@@H](C)C[C@H]4C)O3)O2)CC[C@@]1(C)O [X-206]
Coronary Flow Potency [1, 6]: 8.6
Inotropic Potency [1, 7]: 7.7
Ratio 2/4 (coronary flow potency / RBC K+ leak potency) [2]: .79
Ratio 1/4 (inotropic potency / RBC K+ leak potency) [2]: .70
RBC K+ Leak Potency (column 4) [2]: 10.9

NCCc1ccc(O)c(O)c1 [dopamine]
cardiac effects (prior art) (cardiac muscle): exerts positive inotropic and chronotropic effects

Lysocellin
Inotropic Potency [1, 7]: 1.5
Ratio 1/4 (inotropic potency / RBC K+ leak potency) [2]: .36
RBC K+ Leak Potency (column 4) [2]: 4.1
